Earlier results in US20240325353A1, “COMPOUND FOR TREATMENT OF COGNITIVE DISORDERS” (Syndesi Therapeutics SA, priority 2021, published 2024).
Read-outs that look alike come from different tables or passages of the source.

What was measured:
[1] = target: T1, SV2A (Homo sapiens, UniProt Q7L0J3); settings: cited from earlier work
Target sequence in this assay (Q7L0J3 whole entry, species assumed): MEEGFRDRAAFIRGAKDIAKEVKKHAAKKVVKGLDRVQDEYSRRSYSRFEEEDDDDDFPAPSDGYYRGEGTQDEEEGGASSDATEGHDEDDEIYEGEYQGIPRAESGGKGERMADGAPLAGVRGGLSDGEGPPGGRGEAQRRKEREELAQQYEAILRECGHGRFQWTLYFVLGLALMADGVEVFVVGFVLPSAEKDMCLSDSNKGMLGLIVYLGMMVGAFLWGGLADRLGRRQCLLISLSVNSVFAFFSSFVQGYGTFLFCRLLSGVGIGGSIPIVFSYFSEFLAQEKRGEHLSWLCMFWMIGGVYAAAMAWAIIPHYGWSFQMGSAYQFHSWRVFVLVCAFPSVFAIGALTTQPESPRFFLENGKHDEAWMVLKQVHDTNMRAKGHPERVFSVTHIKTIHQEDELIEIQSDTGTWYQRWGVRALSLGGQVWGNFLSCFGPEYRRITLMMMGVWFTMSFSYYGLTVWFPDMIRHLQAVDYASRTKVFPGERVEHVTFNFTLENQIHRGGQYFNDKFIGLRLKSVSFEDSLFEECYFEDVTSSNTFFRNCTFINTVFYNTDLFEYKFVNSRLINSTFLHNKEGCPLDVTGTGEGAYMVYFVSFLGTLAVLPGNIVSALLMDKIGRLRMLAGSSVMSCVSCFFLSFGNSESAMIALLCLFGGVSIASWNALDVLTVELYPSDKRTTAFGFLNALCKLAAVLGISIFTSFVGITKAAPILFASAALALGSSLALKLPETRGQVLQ

[2] = target: T2, synaptic vesicle glycoprotein 2A (Homo sapiens, UniProt Q7L0J3); settings: oral 100 mg for 4 days; cited from earlier work
T2 construct: from tissue; host or cells: brain of living healthy male subjects (PET)

[3] = in vivo; cited from earlier work
[4] = animals and humans; cited from earlier work
[5] = target: T3, SV2A (Mus musculus, UniProt Q9JIS5); settings: audiogenic mice; cited from earlier work
T3 construct: host or cells: brain of audiogenic mice

[6] = target: T1, SV2A; design: host or cells: human brain (prediction for patients); settings: cited from earlier work
Target sequence in this assay (Q7L0J3 whole entry): as the sequence (Q7L0J3 whole entry, species assumed) above

T2 sequence (Q7L0J3 whole entry): as the sequence (Q7L0J3 whole entry, species assumed) above
T3 sequence (Q9JIS5 whole entry): as the sequence (Q7L0J3 whole entry, species assumed) above, with S62A, T71A, E144D, A154T, G440S, S482A, I572V, M634L counted along it

CCC[C@@H]1CC(=O)N([C@@H](CC)C(N)=O)C1 [brivaracetam, (2S)-2-[(4R)-2-oxo-4-propyltetrahydro-1H-pyrrol-1-yl] butanamide]
affinity of binding to SV2A relative to levetiracetam [1]: higher affinity than levetiracetam
SV2A occupancy at steady state, peak [2]: 82-87%
SV2A occupancy at steady state, trough [2]: 76-82%

CC[C@H](C(N)=O)N1CCCC1=O (single isomer, unassigned) [dextrorotatory enantiomer of levetiracetam]
activity in epilepsy [3]: completely lacks activity

CC[C@@H](C(N)=O)N1CCCC1=O [levetiracetam, (S)-(−)-alpha-ethyl-2-oxo-1-pyrrolidine acetamide]
impact on the cognitive function [4]: no impact on the cognitive function
SV2A occupancy needed to protect against clonic seizure [5]: ~90%
predicted SV2A occupancy at Cmin and Cmax ([6]; patients receiving a 1 g daily dose): 80 to 93%
predicted SV2A occupancy at Cmin and Cmax ([6]; patients receiving a 3 g daily dose): 92 to 98%
